{"source": "paper PMC5994430", "about": "“Mitochondrial Delivery of Phenol Substructure Triggers Mitochondrial Depolarization and Apoptosis of Cancer Cells” (Frontiers in Pharmacology, 2018)", "key": {"[1]": {"system": "caspase 9", "test": "Caspase 9 activity in A549 cell lysates", "assay_type": "cell-based, Human", "settings": "0.1 μM, 24 h", "protocol": "(§1) The activity of caspase 9 and 3 was measured by incubating 20 μg cell lysates with the respective fluorogenic substrates Ac-LEHD-AMC (LEHD-AMC) or DEVD-AMC (DEVD-AMC), as reported ([Pinzón-Daza et al., 2012]). Results were expressed as nmoles AMC/mg protein.\n(§2) FIGURE 7 Effects of phenol TPP-derivatives on mitochondria-dependent apoptosis. A549 and BEAS-2B cells were incubated 24 h in fresh medium (ctrl) or in medium containing 0.1 μM of 1 or 2. (A,B) The activity of caspase 9 and 3 was measured fluorimetrically, in duplicates. Data are means ± SD (n = 3). For both panels: ^∗p < 0.001 vs. A549 ctrl cells; °p < 0.001 for BEAS-2B cells vs. the corresponding condition in A549 cells. (C,D) Cell cycle distribution, measured in duplicates. Data are means ± SD (n = 3). For both panels: ^∗p < 0.001 vs. A549 ctrl cells: °p < 0.001 for BEAS-2B cells vs. the corresponding condition in A549 cells. (E) Bright field microscope analysis of cells. Magnification: 60 × objective (0.52 numerical aperture); 10 × ocular lens. Bar: 20 μM. The micrographs are representative of three experiments with similar results."}, "[2]": {"system": "A549 cells", "test": "Bright field morphological analysis", "assay_type": "cell-based, Human", "settings": "0.1 μM, 24 h, compared with untreated cells", "excerpt": "(§3) Human colon cancer HT29 cells, colon-derived normal fibroblast CCD-18Co cells, lung cancer A549 cells, normal human bronchial epithelial (immortalized with adenovirus 12-SV40 virus hybrid Ad12SV40) BEAS-2B cells, breast cancer MDA-MB-231 cells, normal breast epithelial MCF10A cells, human osteosarcoma U-2OS cells were purchased from ATCC (Manassas, VA, United States). Primary osteoblasts were generated as reported previously ([Buondonno et al., 2016]). HMM and HMC were primary cells stabilized in culture as described ([Aldieri et al., 2004]). The use of primary cells was approved by Ethical Committee of the San Luigi Gonzaga Hospital, Orbassano, (protocol #126/2016). All subjects gave written informed consent in accordance with the Declaration of Helsinki. Cells were maintained in medium supplemented with 10% v/v fetal bovine serum, 1% v/v penicillin-streptomycin, 1% v/v L-glutamine. Morphological analysis was performed with a bright field microscope (Leica Microsystems, Wetzlar, Germany). At least 5 fields/experimental condition were examined.\nas §2"}, "[3]": {"system": "BEAS-2B cells", "test": "Bright field morphological analysis", "assay_type": "cell-based, Human", "settings": "0.1 μM, 24 h", "excerpt": "as §3, §2"}, "[4]": {"system": "human cancer cell lines and normal cells", "test": "Cell viability, panel of cancer cell lines and normal cells", "assay_type": "cell-based", "settings": "for IC50: Homo sapiens, all cancer cell lines examined; for concentrations with cytotoxic activity: cancer cell lines in vitro", "excerpt": "as §3\nThe extracellular release of LDH, considered an index of cell damage and necrosis, was measured spectrophotometrically, as reported ([Riganti et al., 2013b]). The extracellular medium was centrifuged at 12,000 × g for 15 min to pellet cellular debris, the cells were washed with fresh medium, detached with 0.01% trypsin/EDTA, re-suspended in 0.2 ml of 82.3 mM triethanolamine phosphate-HCl (pH 7.6), and sonicated on ice with two 10-sec bursts. LDH activity was measured in the extracellular medium and in the cell lysate: 50 μl of extracellular medium or 5 μl of cell lysate were incubated at 37°C with 5 mM NADH. The reaction was started by adding 20 mM pyruvic acid and was monitored for 6 min, measuring absorbance at 340 nm using a Synergy HT Multi-Detection Microplate Reader (Bio-Tek Instruments, Winoosky, MT, United States). The reaction kinetics were linear throughout the time of measurement. Both intracellular and extracellular enzyme activities were expressed as μmol NADH oxidized/min/dish. The results were expressed as percentage of extracellular LDH versus total (intracellular plus extracellular) LDH. Cell viability was measured by the neutral red staining method, as previously reported ([Riganti et al., 2015b]). The absorbance of untreated cells was considered as 100% viability; the results were expressed as percentage of viable cells versus untreated cells. IC50 was calculated with the CompuSyn software^1.\nFIGURE 4 Effects of phenolic TPP-derivatives on the viability of cancer cell lines and normal cells. Cells were incubated 72 h in fresh medium (0) or with increasing concentrations (0.1, 1, and 10 μM) of 1 and 2. Cell viability was measured spectrophotometrically in quadruplicates. […]"}, "[5]": {"system": "mitochondrial ROS", "test": "Mitochondrial ROS (MitoSOX Red) in BEAS-2B cells", "assay_type": "cell-based, Human", "settings": "0.1 μM, 4 h", "protocol": "The amount of ROS in mitochondrial extracts was measured fluorimetrically by incubating cell suspension at 37°C for 10 min with 10 μM of MitoSOX Red probe (Invitrogen Life Technologies), as per manufacturer’s instructions. Results were expressed as nmoles/mg mitochondrial proteins, using a calibration curve previously set with serial dilution of H2O2.\n[t] Continuedof three experiments with similar results. (D) Confocal analysis of mitochondrial staining with MitoTracker® Green FM. Magnification: 60 × objective (0.52 numerical aperture); 10 × ocular lens. Bar: 10 μM. The micrographs are representative of three experiments with similar results. (E,F) The electron transport was measured spectrophotometrically in duplicates. ATP levels in mitochondrial extracts was measured by a chemiluminescence-based assay, in duplicates. Data are means ± SD (n = 3). For both panels: ^∗p < 0.001 vs. A549 ctrl cells; °p < 0.001 for BEAS-2B cells vs. the corresponding condition in A549 cells. (G,H) ROS amount in mitochondrial extracts and mitochondrial damage were measured fluorimetrically, in duplicates. Data are means ± SD (n = 3). […] There were no statistically significant differences between untreated (ctrl) and compound 1/compound 2-treated BEAS-2B cells for all the parameters analyzed in this figure."}, "[6]": {"system": "A549 cells", "test": "Cell cycle analysis (propidium iodide flow cytometry)", "assay_type": "cell-based, Human", "settings": "0.1 μM, 24 h", "protocol": "(§4) 1 × 10^4 cells were harvested, washed with PBS, treated with 0.25 mg/ml RNAse and stained for 15 min with 50 μg/ml propidium iodide. Cell cycle distribution was analyzed by Guava® easyCyte flow cytometer (Millipore, Billerica, MA, United States), using the InCyte software (Millipore).\nas §2"}, "[7]": {"system": "BEAS-2B cells", "test": "Cell cycle analysis (propidium iodide flow cytometry)", "assay_type": "cell-based, Human", "settings": "0.1 μM, 24 h", "protocol": "as §4, §2"}, "[8]": {"system": "caspase 3", "test": "Caspase 3 activity in BEAS-2B cell lysates", "assay_type": "cell-based, Human", "settings": "0.1 μM, 24 h", "protocol": "as §1, §2"}, "[9]": {"system": "PGC-1α", "test": "Immunoblot of nuclear PGC-1α in A549 cells", "assay_type": "cell-based, Human", "settings": "0.1 μM, 4 h"}}, "data": [{"compound": "CC(=O)Oc1ccc(C[P+](c2ccccc2)(c2ccccc2)c2ccccc2)cc1.[Br-]", "note": "[Compound 1]", "values": [{"measurement": "activity of caspase 9", "setting": "[1]", "result": "strong activation"}, {"measurement": "cell morphology", "setting": "[2]", "result": "reduced cell number and a clear round-shaped morphology"}, {"measurement": "cell morphology", "setting": "[3]", "result": "decreased cell density without appreciable morphological signs of apoptosis"}, {"measurement": "IC50", "setting": "[4]", "result": "< 10", "unit": "µM"}, {"measurement": "concentrations with cytotoxic activity", "setting": "[4]", "result": "100 to 1000", "unit": "nM"}, {"measurement": "mitochondrial ROS", "setting": "[5]", "result": "negligible modifications"}, {"measurement": "percentage of cells in S-phase", "setting": "[6]", "result": "reduced percentage"}, {"measurement": "percentage of cells in the sub-Go phase", "setting": "[6]", "result": "increased"}, {"measurement": "cell cycle distribution", "setting": "[7]", "result": "no change"}, {"measurement": "activity of caspase 3", "setting": "[8]", "result": "remained similar to untreated cells"}, {"measurement": "nuclear level of PGC-1α", "setting": "[9]", "result": "reduced"}]}, {"compound": "O=C(Oc1ccc(C[P+](c2ccccc2)(c2ccccc2)c2ccccc2)cc1C(F)(F)F)c1ccccc1.[Br-]", "note": "[Compound 2]", "values": [{"measurement": "activity of caspase 9", "setting": "[1]", "result": "strong activation"}, {"measurement": "cell morphology", "setting": "[2]", "result": "reduced cell number and a clear round-shaped morphology"}, {"measurement": "cell morphology", "setting": "[3]", "result": "decreased cell density without appreciable morphological signs of apoptosis"}, {"measurement": "IC50", "setting": "[4]", "result": "< 10", "unit": "µM"}, {"measurement": "concentrations with cytotoxic activity", "setting": "[4]", "result": "100 to 1000", "unit": "nM"}, {"measurement": "mitochondrial ROS", "setting": "[5]", "result": "negligible modifications"}, {"measurement": "percentage of cells in S-phase", "setting": "[6]", "result": "reduced percentage"}, {"measurement": "percentage of cells in the sub-Go phase", "setting": "[6]", "result": "increased"}, {"measurement": "cell cycle distribution", "setting": "[7]", "result": "no change"}, {"measurement": "activity of caspase 3", "setting": "[8]", "result": "remained similar to untreated cells"}, {"measurement": "nuclear level of PGC-1α", "setting": "[9]", "result": "reduced"}]}]}
